Experimental data published in ChEMBL document CHEMBL5230110, “FabI (enoyl acyl carrier protein reductase) - A potential broad spectrum therapeutic target and its inhibitors” (Eur J Med Chem, 2020).
In brackets after ≈: the same amount, converted by molar mass.

System: Mycobacterium tuberculosis
Assay: Antimycobacterial activity against Mycobacterium tuberculosis InhA S94A assessed as reduction in bacterial growth
Type: functional

| SMILES | MIC |
| --- | --- |
| Oc1cc2ccc1Oc1ccc(cc1)CCc1ccc(c(O)c1)Oc1ccc(cc1)CC2 | 40 µg/mL (≈ 94.2 µM) |
| CC/C(C)=C1\OC(=O)[C@H](C)[C@H](O)[C@H](Cc2cccnc2)NC(=O)[C@@H](NC(=O)c2ncccc2O)[C@@H](C)OC1=O [PYRIDOMYCIN] | 0.3 µg/mL (≈ 0.555 µM) |
